Laboratory results as given in ChEMBL document CHEMBL3608249, “Indolylpiperidine derivatives as potent and selective α1B adrenoceptor antagonists” (Bioorg Med Chem Lett, 2015).

Assays:
[1] = biological target: T1, Alpha-1A adrenergic receptor (Rattus norvegicus, UniProt P43140); test: Displacement of [3H]prazosin from alpha1A adrenoceptor in rat submaxillary gland membrane; type: cell membranes
T1 sequence (P43140 whole entry): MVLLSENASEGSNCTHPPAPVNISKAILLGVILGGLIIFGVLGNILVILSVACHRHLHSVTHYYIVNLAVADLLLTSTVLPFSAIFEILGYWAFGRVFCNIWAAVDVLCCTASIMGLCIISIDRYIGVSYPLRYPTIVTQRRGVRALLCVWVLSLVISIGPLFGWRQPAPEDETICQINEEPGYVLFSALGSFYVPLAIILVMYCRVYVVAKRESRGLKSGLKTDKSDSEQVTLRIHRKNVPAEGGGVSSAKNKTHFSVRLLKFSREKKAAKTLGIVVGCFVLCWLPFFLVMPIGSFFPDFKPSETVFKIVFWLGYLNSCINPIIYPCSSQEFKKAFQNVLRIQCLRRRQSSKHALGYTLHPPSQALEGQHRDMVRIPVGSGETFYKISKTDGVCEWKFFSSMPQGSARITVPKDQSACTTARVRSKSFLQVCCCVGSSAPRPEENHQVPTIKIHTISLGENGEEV

[2] = biological target: T2, Alpha-1B adrenergic receptor (Rattus norvegicus, UniProt P15823); test: Displacement of [3H]prazosin from alpha1B adrenoceptor in rat liver membranes; type: cell membranes, Membrane
T2 sequence (P15823 whole entry): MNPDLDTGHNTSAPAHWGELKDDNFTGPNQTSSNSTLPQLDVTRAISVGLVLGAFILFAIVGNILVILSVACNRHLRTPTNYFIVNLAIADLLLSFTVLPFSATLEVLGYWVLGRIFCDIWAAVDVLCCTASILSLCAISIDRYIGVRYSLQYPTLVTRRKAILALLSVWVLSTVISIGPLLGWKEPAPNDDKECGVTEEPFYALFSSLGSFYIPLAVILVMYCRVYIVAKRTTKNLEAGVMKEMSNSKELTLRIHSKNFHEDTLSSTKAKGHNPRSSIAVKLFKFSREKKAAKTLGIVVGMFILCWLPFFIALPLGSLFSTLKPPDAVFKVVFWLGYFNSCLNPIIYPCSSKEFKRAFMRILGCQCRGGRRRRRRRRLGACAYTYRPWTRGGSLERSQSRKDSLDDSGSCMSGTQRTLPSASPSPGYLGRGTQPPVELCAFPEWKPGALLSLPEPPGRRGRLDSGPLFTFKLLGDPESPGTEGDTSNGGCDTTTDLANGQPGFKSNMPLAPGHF

[3] = biological target: T3, Alpha-1B adrenergic receptor (Homo sapiens, UniProt P35368); test: Antagonist activity at human alpha1B adrenoceptor assessed as inhibition of norepinephrine-induced increase of intracellular calcium level by cell based assay; type: functional
T3 sequence (P35368 whole entry): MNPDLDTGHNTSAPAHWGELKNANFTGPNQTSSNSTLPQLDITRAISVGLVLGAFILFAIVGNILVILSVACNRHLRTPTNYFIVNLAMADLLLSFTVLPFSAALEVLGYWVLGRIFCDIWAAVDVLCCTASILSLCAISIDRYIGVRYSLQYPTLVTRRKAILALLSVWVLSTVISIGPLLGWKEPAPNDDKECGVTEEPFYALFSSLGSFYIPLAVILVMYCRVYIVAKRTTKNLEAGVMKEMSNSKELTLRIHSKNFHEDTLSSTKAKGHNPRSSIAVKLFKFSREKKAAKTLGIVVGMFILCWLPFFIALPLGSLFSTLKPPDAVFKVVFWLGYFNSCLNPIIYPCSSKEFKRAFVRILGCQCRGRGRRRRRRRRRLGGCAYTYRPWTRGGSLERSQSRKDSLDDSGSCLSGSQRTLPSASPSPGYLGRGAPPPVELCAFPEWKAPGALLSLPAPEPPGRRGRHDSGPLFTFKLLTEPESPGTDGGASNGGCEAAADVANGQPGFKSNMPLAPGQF

Rattus norvegicus [4] = species: Rattus norvegicus; test: Selectivity ratio of Ki for alpha2 adrenoceptor in rat cerebral cortex to Ki for alpha1B adrenoceptor in rat liver membranes; type: cell membranes
[5] = biological target: T4, Alpha-1D adrenergic receptor (Homo sapiens, UniProt P25100); test: Binding affinity to human recombinant alpha1D adrenoceptor
T4 sequence (P25100 whole entry): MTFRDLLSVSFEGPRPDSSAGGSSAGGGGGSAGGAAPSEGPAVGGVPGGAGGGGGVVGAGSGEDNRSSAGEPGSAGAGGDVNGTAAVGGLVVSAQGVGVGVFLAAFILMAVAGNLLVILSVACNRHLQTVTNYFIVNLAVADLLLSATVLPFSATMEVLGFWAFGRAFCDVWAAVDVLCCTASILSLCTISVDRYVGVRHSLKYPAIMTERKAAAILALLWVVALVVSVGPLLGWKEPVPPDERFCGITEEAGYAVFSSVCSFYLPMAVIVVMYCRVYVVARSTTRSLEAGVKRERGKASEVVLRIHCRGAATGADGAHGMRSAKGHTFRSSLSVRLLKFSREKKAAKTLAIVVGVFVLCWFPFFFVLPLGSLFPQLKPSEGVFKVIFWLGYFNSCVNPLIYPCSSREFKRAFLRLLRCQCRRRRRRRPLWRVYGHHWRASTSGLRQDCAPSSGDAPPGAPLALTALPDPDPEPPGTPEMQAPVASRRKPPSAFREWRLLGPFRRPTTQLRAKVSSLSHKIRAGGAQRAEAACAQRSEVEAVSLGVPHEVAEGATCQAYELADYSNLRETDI

[6] = Selectivity ratio of Ki for human recombinant alpha1D adrenoceptor to Ki for alpha1B adrenoceptor in rat liver membranes; type: cell membranes
[7] = biological target: T5, Adrenergic receptor alpha-2 (Rattus norvegicus, UniProt P22086+P19328+P22909); test: Binding affinity to alpha2 adrenoceptor in rat cerebral cortex; type: tissue-based
T5 sequence (P22086 whole entry): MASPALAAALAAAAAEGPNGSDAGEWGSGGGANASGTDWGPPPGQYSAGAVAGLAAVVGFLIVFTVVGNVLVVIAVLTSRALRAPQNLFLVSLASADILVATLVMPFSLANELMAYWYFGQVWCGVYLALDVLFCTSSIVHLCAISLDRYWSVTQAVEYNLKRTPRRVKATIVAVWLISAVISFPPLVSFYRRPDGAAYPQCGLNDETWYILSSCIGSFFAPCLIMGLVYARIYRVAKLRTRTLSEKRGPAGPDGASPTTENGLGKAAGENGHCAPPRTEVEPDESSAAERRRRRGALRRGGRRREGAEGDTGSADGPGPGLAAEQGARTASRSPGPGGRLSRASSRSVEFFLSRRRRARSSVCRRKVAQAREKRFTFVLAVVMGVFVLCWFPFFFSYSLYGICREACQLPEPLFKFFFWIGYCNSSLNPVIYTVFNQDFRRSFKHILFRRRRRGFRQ
T5 sequence (P19328 whole entry): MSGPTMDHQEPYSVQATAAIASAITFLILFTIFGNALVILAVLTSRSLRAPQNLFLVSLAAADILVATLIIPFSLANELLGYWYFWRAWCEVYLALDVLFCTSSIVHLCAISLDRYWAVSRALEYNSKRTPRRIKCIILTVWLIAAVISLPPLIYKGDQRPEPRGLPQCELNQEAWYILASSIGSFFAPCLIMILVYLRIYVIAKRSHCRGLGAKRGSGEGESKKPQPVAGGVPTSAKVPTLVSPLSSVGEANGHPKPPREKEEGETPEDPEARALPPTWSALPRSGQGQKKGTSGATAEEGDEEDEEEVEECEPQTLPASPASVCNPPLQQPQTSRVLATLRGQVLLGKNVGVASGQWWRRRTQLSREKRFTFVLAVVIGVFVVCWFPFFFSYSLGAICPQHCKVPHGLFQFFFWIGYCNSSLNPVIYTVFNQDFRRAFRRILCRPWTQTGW
T5 sequence (P22909 whole entry): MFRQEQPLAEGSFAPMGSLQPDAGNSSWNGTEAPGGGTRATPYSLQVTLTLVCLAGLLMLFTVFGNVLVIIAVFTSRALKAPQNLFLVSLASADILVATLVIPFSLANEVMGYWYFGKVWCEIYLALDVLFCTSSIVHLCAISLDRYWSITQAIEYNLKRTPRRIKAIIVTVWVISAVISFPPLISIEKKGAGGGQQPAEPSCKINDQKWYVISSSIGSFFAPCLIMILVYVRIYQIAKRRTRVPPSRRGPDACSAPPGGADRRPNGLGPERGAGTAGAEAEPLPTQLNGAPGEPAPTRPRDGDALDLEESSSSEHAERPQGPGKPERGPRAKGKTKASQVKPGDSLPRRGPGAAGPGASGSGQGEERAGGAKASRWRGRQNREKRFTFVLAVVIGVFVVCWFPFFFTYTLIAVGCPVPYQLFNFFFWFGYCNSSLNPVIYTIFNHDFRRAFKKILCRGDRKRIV

Adrenergic receptor beta = Adrenergic receptor beta (Rattus norvegicus, UniProt P18090+P10608+P26255); test: Binding affinity to beta adrenoceptor in rat brain; type: tissue-based
Rattus norvegicus [8] = species: Rattus norvegicus; test: Selectivity ratio of Ki for beta adrenoceptor in rat brain to Ki for alpha1B adrenoceptor in rat liver membranes; type: cell membranes

SMILES	Ki [1]	Ki [2]	also measured
CN(C)CCCN1CCC(c2c[nH]c3ccccc23)CC1	240 nM	4.8 nM	–
c1ccc2c(C3CCN(CCCC4CCCCC4)CC3)c[nH]c2c1	140 nM	47 nM	–
Fc1ccc2c(C3CCN(CCCN4CCc5ccccc5C4)CC3)c[nH]c2c1	–	–	IC50 [3]: 560 nM; Ratio Ki (Rattus norvegicus [4]): 40; Ki [5]: 16 nM; Ratio Ki [6]: 40; Ki [7]: 90 nM; Ki (Adrenergic receptor beta): > 1000 nM; Ratio Ki (Rattus norvegicus [8]): 40
c1ccc2c(C3CCN(CCCn4cccc4)CC3)c[nH]c2c1	86 nM	11 nM	–
c1ccc2c(C3CCNCC3)c[nH]c2c1	3100 nM	440 nM	–
c1ccc(CCCN2CCC(c3c[nH]c4ccccc34)CC2)cc1	16 nM	13 nM	–
